From patent publication US11000033B2, “Ketone or oxime compound, and herbicide” (NISSAN CHEMICAL CORPORATION, priority 2014, dated 2021)

Columns and labels:
Assay type in all cases: in vivo
[1] = tested on: Echinochloa oryzacola Vasing.; assay: Test Example 2: herbicidal activity, application during weed generation in submerged conditions (symbol A); conditions: Table 23; application herbicide amount 320 g/ha; grade 0-5 by criteria of Test Example 1
How it was run: (§1)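 Seeds sown in flooded alluvial soil (4 cm water) were grown in a 25-30° C greenhouse. At the one- to two-leaf stage, diluted emulsion of compound was applied to the water surface at a predetermined rate. Effect was scored 3 weeks later.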

[2] = tested on: Scirpus juncoides; assay: Test Example 2: herbicidal activity, application during weed generation in submerged conditions (symbol B); conditions: Table 23; application herbicide amount 320 g/ha; grade 0-5 by criteria of Test Example 1
How it was run: as §1

[3] = tested on: Echinochloa crus-galli var. crus-galli; assay: Test Example 3: herbicidal effect by foliage application, Wagner pot (symbol H); conditions: application herbicide amount 320 g/ha, Table 24
How it was run: (§2)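 Plants sown in submerged alluvial soil (water depth 0.1–0.5 cm) in a 25–30 °C greenhouse and grown 14 days. An emulsion of the compound diluted in water to a set herbicide amount was sprayed uniformly on foliage. Effect on each plant scored 3 weeks after application.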

[4] = tested on: Cyperus difformis; assay: Test Example 3: herbicidal effect by foliage application, Wagner pot (symbol E); conditions: application herbicide amount 320 g/ha, Table 24
How it was run: as §2

[5] = tested on: Echinochloa crus-galli var. crus-galli; assay: Test Example 4: herbicidal effect by soil treatment (symbol H); conditions: application herbicide amount 320 g/ha
How it was run: (§3)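 Seeds were sown in sterilized diluvial soil, covered with about 1.5 cm of soil, and the soil surface was sprayed with a water-diluted emulsion of the compound at a predetermined rate. Plants grew in a greenhouse at 25° C. to 30° C.; effects were scored visually 3 weeks after application.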

[6] = tested on: Alopecurus myosuroides; assay: Test Example 4: herbicidal effect by soil treatment (symbol J); conditions: application herbicide amount 320 g/ha
How it was run: as §3

[7] = tested on: Lolium multiflorum Lam.; assay: Test Example 4: herbicidal effect by soil treatment (symbol K); conditions: application herbicide amount 320 g/ha
How it was run: as §3

[8] = tested on: Amaranthus retroflexus; assay: Test Example 4: herbicidal effect by soil treatment (symbol N); conditions: application herbicide amount 320 g/ha
How it was run: as §3

[9] = tested on: Chenopodium album; assay: Test Example 4: herbicidal effect by soil treatment (symbol O); conditions: application herbicide amount 320 g/ha
How it was run: as §3

[10] = tested on: soybean; assay: Test Example 4: effect on crop by soil treatment (symbol d); conditions: application herbicide amount 320 g/ha
How it was run: (§4)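 Crop seed is sown in spots together with several weed species in a box of sterilized diluvial soil. It is covered by about 1.5 cm of soil and kept in a greenhouse held between 25° C. and 30° C.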

[11] = tested on: wheat; assay: Test Example 4: effect on crop by soil treatment (symbol e); conditions: application herbicide amount 320 g/ha
How it was run: as §4

[12] = tested on: beet; assay: Test Example 4: effect on crop by soil treatment (symbol f); conditions: application herbicide amount 320 g/ha
How it was run: as §4

[13] = tested on: Setaria viridis; assay: Test Example 5: herbicidal effect by foliage application, plastic box (symbol G); conditions: 320 g/ha, 3 weeks after application
How it was run: (§5)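 Herbicide, formulated as an emulsion and diluted in water, is sprayed onto the aerial parts of 14-day seedlings. These were grown at 25° C. to 30° C. in sterilized diluvial soil; effects are graded after 3 weeks.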

[14] = tested on: Abutilon theophrasti; assay: Test Example 5: herbicidal effect by foliage application, plastic box (symbol M); conditions: 320 g/ha, 3 weeks after application
How it was run: as §5

[15] = tested on: Amaranthus retroflexus; assay: Test Example 5: herbicidal effect by foliage application, plastic box (symbol N); conditions: 320 g/ha, 3 weeks after application
How it was run: as §5

[16] = tested on: Chenopodium album; assay: Test Example 5: herbicidal effect by foliage application, plastic box (symbol O); conditions: 320 g/ha, 3 weeks after application
How it was run: as §5

[17] = tested on: Stellaria media; assay: Test Example 5: herbicidal effect by foliage application, plastic box (symbol P); conditions: 320 g/ha, 3 weeks after application
How it was run: as §5

[18] = tested on: Veronica persica; assay: Test Example 5: herbicidal effect by foliage application, plastic box (symbol R); conditions: 320 g/ha, 3 weeks after application
How it was run: as §5

[19] = tested on: rice plant; assay: Test Example 5: effect on crop by foliage application, plastic box (symbol b); conditions: 320 g/ha, 3 weeks after application
How it was run: (§6)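 Crop and weed seeds sown in spots in sterilized diluvial soil in plastic boxes and covered with about 1.5 cm soil. Plants raised in a greenhouse at 25° C. to 30° C. for foliar application.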

[20] = tested on: beet; assay: Test Example 5: effect on crop by foliage application, plastic box (symbol f); conditions: 320 g/ha, 3 weeks after application
How it was run: as §6

| SMILES | Herbicidal effect grade, A: Echinochloa oryzacola Vasing. [1] | Herbicidal effect grade, B: Scirpus juncoides [2] | H (Echinochloa crus-galli var. crus-galli) herbicidal effect grade [3] | E herbicidal effect grade [4] | Herbicidal effect grade, H: Echinochloa crus-galli var. crus-galli [5] | Herbicidal effect grade, J: Alopecurus myosuroides [6] | Herbicidal effect grade, K: Lolium multiflorum Lam. [7] | Herbicidal effect grade, N: Amaranthus retroflexus [8] | Herbicidal effect grade, O: Chenopodium album [9] | Effect on crop grade, d: soybean [10] | Effect on crop grade, e: wheat [11] | Effect on crop grade, f: beet [12] | G: Setaria viridis, herbicidal effect grade [13] | M: Abutilon theophrasti, herbicidal effect grade [14] | N: Amaranthus retroflexus, herbicidal effect grade [15] | O: Chenopodium album, herbicidal effect grade [16] | P: Stellaria media, herbicidal effect grade [17] | R: Veronica persica, herbicidal effect grade [18] | b: directly sowed rice plant, effect on crop grade [19] | f: beet, effect on crop grade [20] |
| --- | --- | --- | --- | --- | --- | --- | --- | --- | --- | --- | --- | --- | --- | --- | --- | --- | --- | --- | --- | --- |
| CC#Cc1cc(C)c(C2=C(O)CC(CC(=NOCC(F)(F)F)C(C)C)C2=O)c(C)c1 (stereo not drawn) [9-015] | 5 (Herbicidal ratio of 90% or more (almost completely withered)) | 3 (Herbicidal ratio of 40% or higher and lower than 70%) | 5 (Herbicidal ratio of 90% or more (almost completely withered)) | 5 (Herbicidal ratio of 90% or more (almost completely withered)) | 5 (Herbicidal ratio of 90% or more (almost completely withered)) | 5 (Herbicidal ratio of 90% or more (almost completely withered)) | 5 (Herbicidal ratio of 90% or more (almost completely withered)) | 0 (Herbicidal ratio of 5% or lower (almost no effect)) | 0 (Herbicidal ratio of 5% or lower (almost no effect)) | 0 (Herbicidal ratio of 5% or lower (almost no effect)) | 3 (Herbicidal ratio of 40% or higher and lower than 70%) | 0 (Herbicidal ratio of 5% or lower (almost no effect)) | 5 (Herbicidal ratio of 90% or more (almost completely withered)) | 0 (Herbicidal ratio of 5% or lower (almost no effect)) | 0 (Herbicidal ratio of 5% or lower (almost no effect)) | 3 (Herbicidal ratio of 40% or higher and lower than 70%) | 3 (Herbicidal ratio of 40% or higher and lower than 70%) | 4 (Herbicidal ratio of 70% or higher and lower than 90%) | 5 (Herbicidal ratio of 90% or more (almost completely withered)) | 0 (Herbicidal ratio of 5% or lower (almost no effect)) |
| CC#Cc1cc(C)c(C2=C(O)CC(CC(=NOCCOC)C3CC3)C2=O)c(C)c1 (stereo not drawn) [9-021] | 5 (Herbicidal ratio of 90% or more (almost completely withered)) | 5 (Herbicidal ratio of 90% or more (almost completely withered)) | 5 (Herbicidal ratio of 90% or more (almost completely withered)) | 5 (Herbicidal ratio of 90% or more (almost completely withered)) | 5 (Herbicidal ratio of 90% or more (almost completely withered)) | 5 (Herbicidal ratio of 90% or more (almost completely withered)) | 5 (Herbicidal ratio of 90% or more (almost completely withered)) | 0 (Herbicidal ratio of 5% or lower (almost no effect)) | 0 (Herbicidal ratio of 5% or lower (almost no effect)) | 0 (Herbicidal ratio of 5% or lower (almost no effect)) | 3 (Herbicidal ratio of 40% or higher and lower than 70%) | 0 (Herbicidal ratio of 5% or lower (almost no effect)) | 5 (Herbicidal ratio of 90% or more (almost completely withered)) | 2 (Herbicidal ratio of 20% or higher and lower than 40%) | 2 (Herbicidal ratio of 20% or higher and lower than 40%) | 3 (Herbicidal ratio of 40% or higher and lower than 70%) | 1 (Herbicidal ratio of 5% or higher and lower than 20%) | 4 (Herbicidal ratio of 70% or higher and lower than 90%) | 5 (Herbicidal ratio of 90% or more (almost completely withered)) | 0 (Herbicidal ratio of 5% or lower (almost no effect)) |
| COCCON=C(CC1CC(O)=C(c2c(C)cc(-n3cc(Cl)cn3)cc2C)C1=O)C(C)C (stereo not drawn) [9-022] | 4 (Herbicidal ratio of 70% or higher and lower than 90%) | 0 (Herbicidal ratio of 5% or lower (almost no effect)) | 5 (Herbicidal ratio of 90% or more (almost completely withered)) | 5 (Herbicidal ratio of 90% or more (almost completely withered)) | 5 (Herbicidal ratio of 90% or more (almost completely withered)) | 0 (Herbicidal ratio of 5% or lower (almost no effect)) | 0 (Herbicidal ratio of 5% or lower (almost no effect)) | 0 (Herbicidal ratio of 5% or lower (almost no effect)) | 0 (Herbicidal ratio of 5% or lower (almost no effect)) | 0 (Herbicidal ratio of 5% or lower (almost no effect)) | 0 (Herbicidal ratio of 5% or lower (almost no effect)) | 0 (Herbicidal ratio of 5% or lower (almost no effect)) | 5 (Herbicidal ratio of 90% or more (almost completely withered)) | 0 (Herbicidal ratio of 5% or lower (almost no effect)) | 0 (Herbicidal ratio of 5% or lower (almost no effect)) | 0 (Herbicidal ratio of 5% or lower (almost no effect)) | 0 (Herbicidal ratio of 5% or lower (almost no effect)) | 0 (Herbicidal ratio of 5% or lower (almost no effect)) | 5 (Herbicidal ratio of 90% or more (almost completely withered)) | 0 (Herbicidal ratio of 5% or lower (almost no effect)) |
